In ChEMBL document CHEMBL5608197, “Optimization of pyrazolopyridine 4-carboxamides with potent antimalarial activity for which resistance is associated with the P. falciparum transporter ABCI3” (Eur J Med Chem, 2024):
Calls of active or inactive are those of the source. No cut-off for these calls is given here.

Legend:
CYP1A2 = target: T1, CYP1A2 (Homo sapiens, UniProt P05177); assay: Inhibition of CYP1A2 (unknown origin) at 1 uM relative to control; type: ADME
T1 sequence (P05177 whole entry): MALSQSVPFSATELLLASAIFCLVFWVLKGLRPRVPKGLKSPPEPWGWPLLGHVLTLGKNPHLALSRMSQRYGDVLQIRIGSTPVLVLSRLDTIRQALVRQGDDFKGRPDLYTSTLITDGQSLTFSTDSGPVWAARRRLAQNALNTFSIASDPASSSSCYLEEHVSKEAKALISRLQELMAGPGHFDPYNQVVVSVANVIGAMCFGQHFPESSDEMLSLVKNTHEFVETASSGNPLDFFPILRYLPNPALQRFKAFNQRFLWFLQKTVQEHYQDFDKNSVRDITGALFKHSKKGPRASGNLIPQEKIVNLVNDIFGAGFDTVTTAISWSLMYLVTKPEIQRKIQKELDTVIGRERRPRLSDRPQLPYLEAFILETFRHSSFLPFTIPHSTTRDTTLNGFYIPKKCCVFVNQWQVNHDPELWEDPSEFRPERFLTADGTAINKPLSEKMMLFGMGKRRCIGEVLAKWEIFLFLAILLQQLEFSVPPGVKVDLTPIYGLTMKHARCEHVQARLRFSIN

CYP2C19 = CYP2C19 (Homo sapiens, UniProt P33261); assay: Inhibition of CYP2C19 (unknown origin) at 1 uM relative to control; type: ADME
CYP3A4 = CYP3A4 (Homo sapiens, UniProt P08684); assay: Inhibition of CYP3A4 (unknown origin) at 1 uM relative to control; type: ADME
Plasmodium falciparum [1] = assay: Antiplasmodial activity against multidrug-resistant Plasmodium falciparum Cam3.1 infected in erythrocytes assessed as inhibition of parasite growth incubated for 72 hrs by [3H]hypoxanthine incorporation based microbeta counting analysis; type: functional, organism-based; settings: Cam3.1, Erythrocyte
[2] = Permeability of the compound across basolateral to apical side in human Caco-2 cells at pH 7.4; type: ADME, cell-based; settings: Caco-2, pH 7.4, read-out: permeability
Plasmodium falciparum [3] = assay: Antiplasmodial activity against drug-resistant Plasmodium falciparum Dd2-B2 in 2x10^7 bulk culture selection assessed as concentration required to complete parasite killing measured on day 2 under initial selection drug pressure concentration of 3XEC50 by Minimum inoculum of resistance analysis; type: functional; settings: time 2 day
[4] = Intrinsic clearance in human liver microsomes at 1 uM measured for 60 mins by LC-MS/MS analysis; type: ADME, Microsome; settings: read-out: CLH
Plasmodium falciparum [5] = assay: Antimalarial activity against asexual stage of Plasmodium falciparum 3D7 infected in erythrocytes assessed as parasite killing at 10XEC50 incubated for 48 hrs with compound renewal for every 24 hrs followed by drug removal and incubation for 48 hrs with CFDA-SE labelled fresh erythrocytes by Hoechst 33342 staining based two-color flow cytometry; type: functional, organism-based; settings: Erythrocyte
Plasmodium falciparum [6] = assay: Antimalarial activity against asexual stage of Plasmodium falciparum 3D7 infected in erythrocytes assessed as lag phase of parasite growth at 10XEC50 incubated for 24 hrs followed by drug removal and incubation for 48 hrs with CFDA-SE labelled fresh erythrocytes by Hoechst 33342 staining based two-color flow cytometry; type: functional, organism-based; settings: Erythrocyte
Plasmodium falciparum [7] = assay: Antiplasmodial activity against drug-resistant recrudescent Plasmodium falciparum Dd2-B2 in 2x10^7 bulk culture selection assessed as inhibition of parasite growth incubated for 72 hrs by flow cytometry; type: functional, organism-based
Plasmodium falciparum [8] = assay: (§1) Resistance ratio of EC90 for antiplasmodial activity against drug-resistant recrudescent Plasmodium falciparum Dd2-B2 in 2x10^5 to 2x10^6 bulk culture selection measured on day 15 under initial selection drug pressure concentration of 3XEC50 to EC90 for antiplasmodial activity against Plasmodium flaciparum Dd2 measured after 72 hrs; type: functional
Plasmodium falciparum [9] = assay: Antiplasmodial activity against drug-resistant Plasmodium falciparum Dd2-B2 bulk cultures assessed as minimum inoculum of resistance measured under initial selection drug pressure concentration of 3XEC50 by MIR analysis; type: functional
Plasmodium falciparum [10] = assay: Antiplasmodial activity against multidrug-resistant Plasmodium falciparum K1 infected in erythrocytes assessed as inhibition of parasite growth incubated for 72 hrs by [3H]hypoxanthine incorporation based microbeta counting analysis; type: functional, organism-based; settings: K1, Erythrocyte
Plasmodium falciparum [11] = assay: Antiplasmodial activity against multidrug-resistant Plasmodium falciparum Dd2 harboring CARL-I1139K mutant infected in erythrocytes assessed as inhibition of parasite growth incubated for 72 hrs by [3H]hypoxanthine incorporation based microbeta counting analysis; type: functional, organism-based; settings: Dd2, Erythrocyte
Plasmodium falciparum [12] = assay: Antiplasmodial activity against multidrug-resistant Plasmodium falciparum Dd2 harboring PI4K-S743F mutant infected in erythrocytes assessed as inhibition of parasite growth incubated for 72 hrs by [3H]hypoxanthine incorporation based microbeta counting analysis; type: functional, organism-based; settings: Dd2, Erythrocyte
[13] = Lipophilicity, elogD of the compound in 1-Octanol/PBS at pH 7.4 at 7.5 uM incubated for 2 hrs by miniaturized shake flask method; type: physicochemical
Plasmodium falciparum [14] = assay: Antiplasmodial activity against multidrug-resistant Plasmodium falciparum 7G8 infected in erythrocytes assessed as inhibition of parasite growth incubated for 72 hrs by [3H]hypoxanthine incorporation based microbeta counting analysis; type: functional, organism-based; settings: 7G8, Erythrocyte
CYP2D6 = CYP2D6 (Homo sapiens, UniProt P10635); assay: Inhibition of CYP2D6 (unknown origin) at 10 uM relative to control; type: ADME
CYP2C9 [15] = target: T2, CYP2C9 (Homo sapiens, UniProt P11712); assay: Inhibition of CYP2C9 (unknown origin) at 10 uM relative to control; type: ADME
[16] = Efflux ratio of permeability across basolateral to apical side over apical to basolateral side in human Caco-2 cells at pH 7.4; type: ADME, cell-based; settings: Caco-2, pH 7.4
Plasmodium falciparum [17] = assay: Antiplasmodial activity against multidrug-resistant Plasmodium falciparum TM90-C2B infected in erythrocytes assessed as inhibition of parasite growth incubated for 72 hrs by [3H]hypoxanthine incorporation based microbeta counting analysis; type: functional, organism-based; settings: Erythrocyte
Plasmodium falciparum [18] = assay: Antiplasmodial activity against asexual blood stage of Plasmodium falciparum 3D7 assessed as inhibition of parasite growth incubated for 72 hrs by LDH assay; type: functional, organism-based; settings: 3D7, 72 h
[19] = Intrinsic clearance in rat hepatocytes at 1 uM measured per million cells for 90 mins by LC-MS/MS analysis; type: ADME, cell-based, Hepatocyte; settings: read-out: CLH
CYP2C9 [20] = target: T2, CYP2C9; assay: Inhibition of CYP2C9 (unknown origin) at 1 uM relative to control; type: ADME
Plasmodium falciparum [21] = assay: as §1, with “2x10^7” for “2x10^5 to 2x10^6”; type: functional
Plasmodium falciparum [22] = assay: Antiplasmodial activity against multidrig-resistant Plasmodium falciparum Dd2 harboring eEF2Y-I86N mutant infected in erythrocytes assessed as inhibition of parasite growth incubated for 72 hrs by [3H]hypoxanthine incorporation based microbeta counting analysis; type: functional, organism-based; settings: Dd2, Erythrocyte
[23] = Permeability of the compound across apical to basolateral side in human Caco-2 cells at pH 7.4; type: ADME, cell-based; settings: Caco-2, pH 7.4, read-out: permeability
Plasmodium falciparum [24] = assay: Antiplasmodial activity against drug-resistant recrudescent Plasmodium falciparum Dd2-B2 in 2x10^5 bulk culture selection assessed as inhibition of parasite growth incubated for 72 hrs by flow cytometry; type: functional, organism-based
Plasmodium falciparum [25] = assay: Antiplasmodial activity against multidrug-resistant Plasmodium falciparum Dd2 harboring cyt b-I22L mutant infected in erythrocytes assessed as inhibition of parasite growth incubated for 72 hrs by [3H]hypoxanthine incorporation based microbeta counting analysis; type: functional, organism-based; settings: Dd2, Erythrocyte
Plasmodium falciparum [26] = assay: Antiplasmodial activity against Plasmodium falciparum Dd2-B2 assessed as inhibition of parasite growth incubated for 72 hrs by flow cytometry; type: functional, organism-based
Plasmodium falciparum [27] = assay: Antiplasmodial activity against Plasmodium falciparum Dd2 infected in erythrocytes assessed as inhibition of parasite growth incubated for 72 hrs by [3H]hypoxanthine incorporation based microbeta counting analysis; type: functional, organism-based; settings: Dd2, Erythrocyte

T2 sequence (P11712 whole entry): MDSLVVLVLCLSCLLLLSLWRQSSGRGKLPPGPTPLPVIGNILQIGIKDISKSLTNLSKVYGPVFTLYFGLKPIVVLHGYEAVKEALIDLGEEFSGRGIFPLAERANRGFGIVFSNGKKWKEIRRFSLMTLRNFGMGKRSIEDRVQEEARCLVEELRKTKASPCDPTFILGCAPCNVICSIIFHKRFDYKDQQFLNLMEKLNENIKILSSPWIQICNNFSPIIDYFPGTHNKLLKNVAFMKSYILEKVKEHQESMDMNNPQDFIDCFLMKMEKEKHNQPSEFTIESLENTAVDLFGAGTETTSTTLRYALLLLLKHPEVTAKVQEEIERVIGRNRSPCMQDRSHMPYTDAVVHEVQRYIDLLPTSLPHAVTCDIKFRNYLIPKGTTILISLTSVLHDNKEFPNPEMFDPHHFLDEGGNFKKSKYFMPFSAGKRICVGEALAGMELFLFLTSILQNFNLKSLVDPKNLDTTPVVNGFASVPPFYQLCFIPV
Chain of CYP2D6 (P10635 whole entry): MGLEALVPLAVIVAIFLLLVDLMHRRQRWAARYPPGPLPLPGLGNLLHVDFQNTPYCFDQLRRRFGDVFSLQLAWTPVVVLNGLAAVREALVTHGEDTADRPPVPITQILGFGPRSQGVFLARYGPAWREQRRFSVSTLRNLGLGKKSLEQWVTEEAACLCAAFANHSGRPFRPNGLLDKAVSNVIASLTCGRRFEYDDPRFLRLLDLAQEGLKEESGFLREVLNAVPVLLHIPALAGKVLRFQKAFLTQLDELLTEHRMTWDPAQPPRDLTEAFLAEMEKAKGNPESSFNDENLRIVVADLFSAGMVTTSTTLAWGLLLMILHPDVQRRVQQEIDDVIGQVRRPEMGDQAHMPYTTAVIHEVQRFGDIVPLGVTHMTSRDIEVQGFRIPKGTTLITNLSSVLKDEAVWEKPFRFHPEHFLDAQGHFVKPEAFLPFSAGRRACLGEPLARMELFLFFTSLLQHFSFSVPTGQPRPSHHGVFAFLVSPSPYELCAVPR
Chain of CYP3A4 (P08684 whole entry): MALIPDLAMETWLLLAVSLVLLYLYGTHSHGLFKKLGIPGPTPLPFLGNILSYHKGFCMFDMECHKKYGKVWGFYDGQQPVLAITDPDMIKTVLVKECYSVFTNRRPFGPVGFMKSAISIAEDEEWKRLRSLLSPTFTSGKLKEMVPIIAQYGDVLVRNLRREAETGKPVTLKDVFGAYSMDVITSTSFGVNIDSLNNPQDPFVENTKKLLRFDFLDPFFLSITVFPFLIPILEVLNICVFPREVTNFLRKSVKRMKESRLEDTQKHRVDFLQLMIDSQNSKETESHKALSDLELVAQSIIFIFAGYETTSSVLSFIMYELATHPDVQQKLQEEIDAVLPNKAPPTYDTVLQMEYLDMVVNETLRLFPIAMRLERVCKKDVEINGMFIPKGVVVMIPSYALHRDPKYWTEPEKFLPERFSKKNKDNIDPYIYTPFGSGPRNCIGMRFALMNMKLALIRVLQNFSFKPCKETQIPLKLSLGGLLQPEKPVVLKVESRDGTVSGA
Chain of CYP2C19 (P33261 whole entry): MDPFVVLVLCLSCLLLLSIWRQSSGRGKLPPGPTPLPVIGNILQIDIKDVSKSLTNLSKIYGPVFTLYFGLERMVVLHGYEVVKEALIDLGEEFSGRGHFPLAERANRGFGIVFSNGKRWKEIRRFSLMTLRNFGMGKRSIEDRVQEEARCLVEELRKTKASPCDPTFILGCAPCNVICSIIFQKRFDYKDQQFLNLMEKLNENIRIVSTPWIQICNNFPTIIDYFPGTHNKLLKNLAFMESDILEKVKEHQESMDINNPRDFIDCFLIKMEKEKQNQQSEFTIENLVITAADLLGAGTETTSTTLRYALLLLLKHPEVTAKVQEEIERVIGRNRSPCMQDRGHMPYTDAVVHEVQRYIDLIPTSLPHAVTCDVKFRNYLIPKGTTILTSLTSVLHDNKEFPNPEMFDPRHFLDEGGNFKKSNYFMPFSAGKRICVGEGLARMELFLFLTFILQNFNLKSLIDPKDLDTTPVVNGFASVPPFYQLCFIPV

Q: Which results are given for `Cc1nn(C(C)(C)C)c2nc(C3CC3)cc(C(=O)N3CCOc4ccncc43)c12`?
A: inhibition at 1 µM (CYP1A2): 18%; inhibition at 1 µM (CYP2C19): 3.6%; inhibition at 1 µM (CYP3A4): 66.2%; EC50 (Plasmodium falciparum [1]): 6 nM; Papp B→A [2]: 23.7 ×10⁻⁶ cm/s; Activity (Plasmodium falciparum [3]): 28 nM; microsomal CLint at 1 µM [4]: 116 µL/min/mg; Activity (Plasmodium falciparum [5]): Active; Activity (Plasmodium falciparum [6]): Active; EC50 (Plasmodium falciparum [7]; Dd2-B2, 72 h): 37.5 nM; EC90 (Plasmodium falciparum [7]; Dd2-B2, time 72 hrs): 68.9 nM; Ratio (Plasmodium falciparum [8]): 5; Activity (Plasmodium falciparum [9]): 1.6 10^6No_unit; EC50 (Plasmodium falciparum [10]): 9 nM; EC50 (Plasmodium falciparum [11]): 5 nM; EC50 (Plasmodium falciparum [12]): 6 nM; logD at 2 h, 7.5 µM [13]: 4.1; EC50 (Plasmodium falciparum [14]): 8 nM; inhibition at 10 µM (CYP2D6): 86.4%; inhibition at 10 µM (CYP2C9 [15]): 57.5%; efflux ratio [16]: 1.4; EC50 (Plasmodium falciparum [17]): 7 nM; EC50 (Plasmodium falciparum [18]): 16 nM; hepatocyte CLint at 1 µM [19]: 26 µL/min/1e6 cells; inhibition at 1 µM (CYP2C9 [20]): 12.8%; Ratio (Plasmodium falciparum [21]): 5; EC50 (Plasmodium falciparum [22]): 7 nM; Papp A→B [23]: 17.1 ×10⁻⁶ cm/s; EC50 (Plasmodium falciparum [24]; Dd2-B2, 72 h): 28.3 nM; EC90 (Plasmodium falciparum [24]; Dd2-B2, time 72 hrs): 68.3 nM; EC50 (Plasmodium falciparum [25]): 6 nM; EC50 (Plasmodium falciparum [26]; Dd2-B2, 72 h): 6.8 nM; EC90 (Plasmodium falciparum [26]; Dd2-B2, time 72 hrs): 12.3 nM; EC50 (Plasmodium falciparum [27]): 4 nM
